Reference: patent publication US20220135538A1, “P300/CBP HAT INHIBITORS AND METHODS FOR THEIR USE” (Constellation Pharmaceuticals, Inc., priority 2019, published 2022)

Columns and labels:
[1] = test system: acetylation of chromatin at H3K18 in HCT-116 cells; assay: H3K18Ac MSD cellular assay; type: cell-based; settings: Homo sapiens, 2 hr treatment
Description: Select compounds were also evaluated in a H3K18Ac MSD cellular assay that measures the ability of compounds to inhibit the acetylation of chromatin at H3K18, a process catalyzed by p300 and CBP. In a typical experiment the p300 HAT inhibitory activity inside cells of the compounds described herein was determined in accordance with the following experimental method. 20 k HCT-116 cells per well are plated in 75 μL RPMI+10% FBS media the night before treatment. Compounds plated in DMSO at 4× final concentration are resuspended in 30 μL RPMI+10% FBS, then 25 μL is combined with corresponding wells containing cells. Treated cells are incubated for 2 hr at 37° C., then lysed in 500 μL final volume and frozen at −80° C. MSD plates (Meso Scale Discovery) are coated overnight at 4° C. with 60 μL 1:500 α-total histone antibody (Millipore MAB3422) in PBS. Plates are then blocked with 5% BSA in TBST shaking at RT for 1 hr, washed, and 30 μL lysate added to each well for 2 hr shaking at RT. Plates are washed and 25 μL 1:216 α-H3K18ac antibody (CST 9675) in PBS added, then incubated for 1 hr shaking at RT. Plates are washed again, then 25 μL 1:1000 Sulfo-Tag goat α-rabbit antibody (Meso Scale Discovery R32Ab-1) in PBS is added for 1 hr shaking at RT. Plates are washed once more, then 150 μL 1× Read Buffer (MSD #R92TD-3) is added to all wells and read on MSD SECTOR Imager 2400 using the conventional read setup.

[2] = target: T1, p300 HAT domain (residues 1287-1666) (Homo sapiens, UniProt Q09472); assay: P300 HAT SPA assay (scintillation proximity, acetylation of biotinylated H3(1-21) peptide); type: biochemical; settings: 6 nM p300-HAT domain; average of at least 2 replicate titrations
T1 construct: The p300 HAT domain (residues 1287-1666) was expressed; His tag (N); made in house; host or cells: Escherichia coli
T1 sequence (Q09472 1287-1666): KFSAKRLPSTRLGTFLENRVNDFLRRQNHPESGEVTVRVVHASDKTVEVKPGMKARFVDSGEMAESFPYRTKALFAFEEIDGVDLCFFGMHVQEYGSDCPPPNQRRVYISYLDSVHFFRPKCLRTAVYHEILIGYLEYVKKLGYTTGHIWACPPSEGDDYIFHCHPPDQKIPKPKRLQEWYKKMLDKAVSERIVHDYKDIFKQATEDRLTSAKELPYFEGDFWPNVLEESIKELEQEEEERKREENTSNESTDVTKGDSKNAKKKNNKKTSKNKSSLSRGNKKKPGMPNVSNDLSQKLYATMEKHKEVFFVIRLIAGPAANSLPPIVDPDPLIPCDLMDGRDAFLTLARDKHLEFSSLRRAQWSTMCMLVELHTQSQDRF
Description: The activity of the compounds described herein as p300/CBP HAT inhibitors may be readily determined using a scintillation proximity assay (SPA) methodology (Udenfriend, S.; Gerber, L.; Nelson, N. Scintillation Proximity Assay: A Sensitive and Continuous Isotopic Method for Monitoring Ligand/Receptor and Antigen/Antibody Interactions. Anal. Biochem. 1987, 161, 494-500).
In a typical experiment the p300 HAT inhibitory activity of the compounds described herein was determined in accordance with the following experimental method.
The p300 HAT domain (residues 1287-1666) was expressed and purified with an N-terminal His tag from Escherichia coli cells. The expressed protein was purified by Ni2+affinity, followed by anion exchange chromatography. Appropriate fractions were pooled and buffer exchanged into 20 mM Hepes pH 7.5, 150 mM NaCl, and 1 mM TCEP.
(§1) Compounds of interest solubilized in DMSO were stamped in a Greiner black 384-well plate in a 10-point duplicate dose response using an Echo 550 (Labcyte). p300-HAT domain purified in-house (aa 1287-1666) was diluted to 6 nM in reaction buffer (50 mM Tris pH 8.0, 100 mM NaCl, 1 mM DTT, 0.069 mM Brij-35, 0.1 mM EDTA, 0.1 mg/mL BSA), combined with 4.14 μM AcCoA (Sigma-Aldrich) and 0.46 μM ^3H-AcCoA (PerkinElmer), and 12.5 μL added to each well and incubated for 30 min at RT. Reactions were initiated with 12.5 μL 2 μM biotinylated H3(1-21) peptide (New England Peptide) and run for 1 hr at RT, then quenched with 20 μL stop solution (200 mM Tris pH 8.0, 200 mM EDTA, 2M NaCl, 160 μM anacardic acid). 35 μL of the reaction volume was transferred to a 384-well streptavidin FlashPlate (PerkinElmer) using a Bravo liquid handler (Velocity 11) and incubated for 1.5 hr at RT. Plates were aspirated, washed with 95 μL wash buffer (15 mM Tris pH 8.5, 0.069 μM Brij-35), aspirated, sealed, and scintillation counts read on a Topcount (PerkinElmer). Data were analyzed in Genedata to determine inhibitor IC50 values.

full length p300 = target: T2, full length p300 (Homo sapiens, UniProt Q09472); assay: Full length p300 SPA assay; type: biochemical; settings: 6 nM purified full length p300; read-out: FL P300 IC50
T2 construct: used 6 nM purified full length p300 (purchased from Active Motif); purchased Active Motif
Description: as §1
The full length p300 SPA assay was run following the same protocol as p300 HAT SPA assay, but used 6 nM purified full length p300 (purchased from Active Motif) in place of the purified p300-HAT domain.

T2 sequence (Q09472 whole entry): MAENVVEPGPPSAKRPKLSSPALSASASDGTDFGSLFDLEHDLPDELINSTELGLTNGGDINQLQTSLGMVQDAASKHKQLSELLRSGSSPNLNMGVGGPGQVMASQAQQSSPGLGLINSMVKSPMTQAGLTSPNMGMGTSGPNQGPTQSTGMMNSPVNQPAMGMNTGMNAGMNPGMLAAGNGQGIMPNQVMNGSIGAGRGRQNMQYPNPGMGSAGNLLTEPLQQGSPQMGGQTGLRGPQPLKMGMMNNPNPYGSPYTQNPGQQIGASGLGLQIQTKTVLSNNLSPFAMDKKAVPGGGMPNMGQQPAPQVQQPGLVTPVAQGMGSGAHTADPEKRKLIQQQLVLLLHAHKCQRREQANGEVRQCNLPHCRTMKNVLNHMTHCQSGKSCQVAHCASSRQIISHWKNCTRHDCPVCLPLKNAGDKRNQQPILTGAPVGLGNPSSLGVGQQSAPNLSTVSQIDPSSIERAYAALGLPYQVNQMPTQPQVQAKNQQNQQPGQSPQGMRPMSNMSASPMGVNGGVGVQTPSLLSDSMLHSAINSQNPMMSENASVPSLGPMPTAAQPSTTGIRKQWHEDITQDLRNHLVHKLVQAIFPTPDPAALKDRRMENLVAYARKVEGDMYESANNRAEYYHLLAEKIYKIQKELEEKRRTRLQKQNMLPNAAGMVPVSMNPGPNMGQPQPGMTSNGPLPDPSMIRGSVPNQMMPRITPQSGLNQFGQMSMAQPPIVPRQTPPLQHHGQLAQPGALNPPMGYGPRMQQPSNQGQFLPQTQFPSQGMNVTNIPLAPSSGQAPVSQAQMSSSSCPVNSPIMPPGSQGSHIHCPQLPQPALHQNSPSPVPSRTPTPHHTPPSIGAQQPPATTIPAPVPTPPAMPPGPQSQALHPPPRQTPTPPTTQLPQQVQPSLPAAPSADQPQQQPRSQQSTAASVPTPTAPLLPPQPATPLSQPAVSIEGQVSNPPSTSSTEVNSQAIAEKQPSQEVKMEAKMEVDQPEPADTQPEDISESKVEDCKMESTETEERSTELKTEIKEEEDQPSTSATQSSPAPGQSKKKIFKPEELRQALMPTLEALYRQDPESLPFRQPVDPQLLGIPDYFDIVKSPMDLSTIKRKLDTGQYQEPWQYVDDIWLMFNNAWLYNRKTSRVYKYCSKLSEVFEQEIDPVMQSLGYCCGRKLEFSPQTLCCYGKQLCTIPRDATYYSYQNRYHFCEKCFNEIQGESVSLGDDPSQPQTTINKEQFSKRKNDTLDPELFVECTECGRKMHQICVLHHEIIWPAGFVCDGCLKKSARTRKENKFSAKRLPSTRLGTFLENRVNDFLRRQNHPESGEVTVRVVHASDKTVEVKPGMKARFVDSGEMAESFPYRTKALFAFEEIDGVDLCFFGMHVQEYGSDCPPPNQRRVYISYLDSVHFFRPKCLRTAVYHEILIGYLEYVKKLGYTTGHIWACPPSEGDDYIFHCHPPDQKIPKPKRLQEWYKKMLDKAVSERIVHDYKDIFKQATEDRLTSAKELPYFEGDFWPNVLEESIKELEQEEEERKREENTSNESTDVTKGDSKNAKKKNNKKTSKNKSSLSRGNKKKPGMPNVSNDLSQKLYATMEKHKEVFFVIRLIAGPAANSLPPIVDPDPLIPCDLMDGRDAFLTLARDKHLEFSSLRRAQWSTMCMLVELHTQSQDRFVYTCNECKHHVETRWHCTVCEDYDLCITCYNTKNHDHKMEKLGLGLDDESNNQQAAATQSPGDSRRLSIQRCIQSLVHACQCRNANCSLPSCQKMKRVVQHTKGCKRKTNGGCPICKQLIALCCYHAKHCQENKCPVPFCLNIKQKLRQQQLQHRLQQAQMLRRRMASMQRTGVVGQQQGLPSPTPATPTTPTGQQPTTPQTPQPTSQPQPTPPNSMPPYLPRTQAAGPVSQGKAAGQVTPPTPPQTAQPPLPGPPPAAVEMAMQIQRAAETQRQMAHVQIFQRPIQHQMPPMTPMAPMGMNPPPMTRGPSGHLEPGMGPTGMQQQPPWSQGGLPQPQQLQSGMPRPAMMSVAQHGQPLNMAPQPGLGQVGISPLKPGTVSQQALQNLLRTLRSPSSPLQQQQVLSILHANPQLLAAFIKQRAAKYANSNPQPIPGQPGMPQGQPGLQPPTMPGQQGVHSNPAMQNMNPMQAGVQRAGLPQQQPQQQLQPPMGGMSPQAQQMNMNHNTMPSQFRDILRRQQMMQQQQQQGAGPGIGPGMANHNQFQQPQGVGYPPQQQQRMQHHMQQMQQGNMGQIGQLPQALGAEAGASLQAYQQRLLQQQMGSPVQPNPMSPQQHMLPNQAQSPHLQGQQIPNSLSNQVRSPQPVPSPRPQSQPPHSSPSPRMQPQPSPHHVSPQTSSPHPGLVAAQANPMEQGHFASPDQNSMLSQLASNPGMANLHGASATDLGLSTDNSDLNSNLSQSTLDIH

Compound	EC50 [1]	IC50 [2]	IC50 (full length p300)
CC(=O)N1CCC(Oc2ccc(NC(=O)C(NCCc3ccc(C#N)cc3)c3ccccc3)nc2)CC1 (single isomer, unassigned) [9 Isomer 1]	–	56.4 nM	4.21 nM
N#Cc1ccc(CCNC(C(=O)Nc2ccc(OC3CCOCC3)cn2)c2ccccc2)cc1 (single isomer, unassigned) [5 Isomer 1]	–	97.6 nM	3.69 nM
CC(=O)N1CC(Oc2ccc(NC(=O)C(NCC(C)c3ccc(C#N)cc3)c3cnn(C)c3)nc2)C1 (single isomer, unassigned) [24 Isomer 1]	57 nM	38 nM	< 3 nM
CC(=O)N1CC(Oc2ccc(NC(=O)C(NCC(C)c3ccc(C#N)cc3)c3cnn(C)c3)nc2)C1 (single isomer, unassigned) [24 Isomer 4]	–	> 2000 nM	–
CC(=O)N1CC[C@H](Oc2ccc(NC(=O)C(NCCc3ccc(C#N)cc3)c3ccccc3)nc2)C1 (single isomer, unassigned) [13 Isomer 2]	–	59.9 nM	–
CC(CNC(C(=O)Nc1ccc(Oc2cnn(C)c2)cn1)c1ccccc1)c1ccc(C#N)cc1 (single isomer, unassigned) [17 Isomer 3]	–	> 2000 nM	–
Cc1cnc(Oc2ccc(NC(=O)C(NCCc3ccc(C#N)cc3)c3ccccc3)nc2)nc1 (single isomer, unassigned) [22 Isomer 2]	–	1390 nM	–
N#Cc1ccc(CCNC(C(=O)Nc2ccc(OCCN3CCOC3=O)cn2)c2ccccc2)cc1 (single isomer, unassigned) [19 Isomer 2]	–	> 2000 nM	–
CN1CCC(Oc2ccc(NC(=O)C(NCCc3ccc(C#N)cc3)c3ccccc3)nc2)CC1 (single isomer, unassigned) [1 Isomer 2]	–	> 5000 nM	240 nM
CN1CCC(Oc2ccc(NC(=O)C(NCCc3ccc(C#N)cc3)c3ccccc3)nc2)C1=O (single isomer, unassigned) [12 Isomer 4]	–	> 2000 nM	–
CC(Oc1ccc(NC(=O)C(NCCc2ccc(C#N)cc2)c2ccccc2)nc1)c1cnn(C)c1 (single isomer, unassigned) [18 Isomer 2]	–	209 nM	–
CC(=O)N1CCC[C@H](Oc2ccc(NC(=O)C(NCCc3ccc(C#N)cc3)c3ccccc3)nc2)C1 (single isomer, unassigned) [15 Isomer 1]	–	272 nM	–
CC(CNC(C(=O)Nc1ccc(OC2CCN(C(=O)C3CC3)CC2)cn1)c1ccccc1)c1ccc(C#N)cc1 (single isomer, unassigned) [20 Isomer 2]	–	26.7 nM	–
CC(=O)N1CC(Oc2ccc(NC(=O)C(NCC(C)c3ccc(C#N)cc3)c3cnn(C)c3)nc2)C1 (single isomer, unassigned) [24 Isomer 3]	–	> 2000 nM	–
CC(=O)N1CC(Oc2ccc(NC(=O)C(NCC(C)c3ccc(C#N)cc3)c3cnn(C)c3)nc2)C1 (single isomer, unassigned) [24 Isomer 2]	–	578 nM	–
CN1CC(Oc2ccc(NC(=O)C(NCCc3ccc(Cl)cc3)c3ccccc3)nc2)CN(C)C1=O (single isomer, unassigned) [3 Isomer 2]	–	117 nM	–
CC(CNC(C(=O)Nc1ccc(OC2CN(C(=O)C3CC3)C2)cn1)c1ccccc1)c1ccc(C#N)cc1 (single isomer, unassigned) [21 Isomer 1]	–	27.4 nM	< 2 nM
N#Cc1ccc(CCNC(C(=O)Nc2ccc(OC3CCOCC3)cn2)c2ccccc2)cc1 (single isomer, unassigned) [5 Isomer 2]	–	> 2000 nM	137 nM

Second part, the compound after the results:

EC50 [1]	IC50 [2]	IC50 (full length p300)	Compound
35 nM	27.7 nM	< 2 nM	CN1CCC(Oc2ccc(NC(=O)C(NCCc3ccc(C#N)cc3)c3ccccc3)nc2)CC1 (single isomer, unassigned) [1 Isomer 1]
–	1140 nM	–	N#Cc1ccc(CCNC(C(=O)Nc2ccc(OC3COC3)cn2)c2ccccc2)cc1 (single isomer, unassigned) [6 Isomer 2]
–	> 2000 nM	102 nM	CC(=O)N1CCC(Oc2ccc(NC(=O)C(NCCc3ccc(C#N)cc3)c3ccccc3)nc2)CC1 (single isomer, unassigned) [9 Isomer 2]
–	> 2000 nM	–	CC(CNC(C(=O)Nc1ccc(OC2CCN(C(=O)C3CC3)CC2)cn1)c1ccccc1)c1ccc(C#N)cc1 (single isomer, unassigned) [20 Isomer 1]
–	> 2000 nM	–	O=C(Nc1ccc(OCCn2cccn2)cn1)C(NCCc1ccc(Cl)cc1)c1ccccc1 (single isomer, unassigned) [7 Isomer 1]
–	26.6 nM	–	CN1CCC(Oc2ccc(NC(=O)C(NCCc3ccc(Cl)cc3)c3ccccc3)nc2)CC1 (single isomer, unassigned) [11 Isomer 1]
–	63 nM	–	CN1CCC(Oc2ccc(NC(=O)C(NCCc3ccc(C#N)cc3)c3ccccc3)nc2)C1=O (single isomer, unassigned) [12 Isomer 2]
–	36.2 nM	–	CC(=O)N1CC[C@@H](Oc2ccc(NC(=O)C(NCCc3ccc(C#N)cc3)c3ccccc3)nc2)C1 (single isomer, unassigned) [14 Isomer 1]
–	311 nM	–	CC(Oc1ccc(NC(=O)C(NCCc2ccc(C#N)cc2)c2ccccc2)nc1)c1cnn(C)c1 (single isomer, unassigned) [18 Isomer 1]
–	1360 nM	–	Cn1cc(COc2ccc(NC(=O)C(NCCc3ccc(Cl)cc3)c3ccccc3)nc2)cn1 (single isomer, unassigned) [8 Isomer 1]
69 nM	16.8 nM	–	Cn1cc(COc2ccc(NC(=O)C(NCCc3ccc(Cl)cc3)c3ccccc3)nc2)cn1 (single isomer, unassigned) [8 Isomer 2]
–	> 2000 nM	–	CC(CNC(C(=O)Nc1ccc(Oc2cnn(C)c2)cn1)c1ccccc1)c1ccc(C#N)cc1 (single isomer, unassigned) [17 Isomer 2]
–	> 1000 nM	–	CC(CNC(C(=O)Nc1ccc(OC2CN(C(=O)OC(C)(C)C)C2)cn1)c1ccccc1)c1ccc(C#N)cc1 (single isomer, unassigned) [25 Isomer 1]
–	> 2000 nM	–	CN1CCC(Oc2ccc(NC(=O)C(NCCc3ccc(Cl)cc3)c3ccccc3)nc2)CC1 (single isomer, unassigned) [11 Isomer 2]
–	98.5 nM	–	O=C(Nc1ccc(OCCn2cccn2)cn1)C(NCCc1ccc(Cl)cc1)c1ccccc1 (single isomer, unassigned) [7 Isomer 2]
–	56.6 nM	–	N#Cc1ccc(CCNC(C(=O)Nc2ccc(OCCN3CCOC3=O)cn2)c2ccccc2)cc1 (single isomer, unassigned) [19 Isomer 1]
–	> 2000 nM	–	N#Cc1ccc(CCNC(C(=O)Nc2ccc(O[C@@H]3CCOC3)cn2)c2ccccc2)cc1 (single isomer, unassigned) [4 Isomer 2]
